Source: patent US20110152088A1, “Herbicidal Composition Comprising Flufenacet” (BAYER CROPSCIENCE AG, priority 2009, published 2011)

Experiments:
POAAN = assay: Greenhouse trial: PE soil application vs incorporation into the soil (test methods 1, 3 and 4); type: in vivo, Poa annua; details: g of AS/ha: (A) 120, (B) 1200, (C) 140, (A)+(B)+(C) 120 + 1200 + 140
Method: (§1) In the standard design of the test, seeds of various broad-leaved weed and weed grass biotypes (origins) were sown in a 8-13 cm diameter pot filled with natural soil of a standard field soil (loamy silt; non-sterile) and covered with a covering soil layer of about 1 cm. The pots were then cultivated in a greenhouse (12-16 h of light, temperature day 20-22° C., night 15-18° C.) until the time of application. The pots were treated on a laboratory track sprayer with spray liquors comprising the compositions according to the invention, mixtures of the prior art or components used individually. Application of the active compounds or active compound combinations formulated as WG, WP, EC or otherwise was carried out at the appropriate growth stages of the plants. The application rate for the spray application was 100-600 l of water/ha. After the treatment, the plants were returned to the greenhouses.
(§2) About 3 weeks after the application, the soil action or/and foliar action was assessed visually according to a scale of 0-100% in comparison to an untreated comparative group: 0%=no noticeable effect compared to the untreated comparative group; 100%=full effect compared to the untreated comparative group.
(§3) (notes: the term “seeds” also includes vegetative propagation forms such as, for example, rhizome pieces; abbreviations used: h light=hours of illumination, g of AS/ha=gram of active substance per hectare, I/ha=liter per hectare, S=sensitive, R=resistant) • 1. Pre-emergence action against weeds: seeds of various broad-leaved weed and weed grass biotypes (origins) were sown in a 8-13 cm diameter pot filled with natural soil of a standard field soil (loamy silt; non-sterile) and covered with a covering soil layer of about 1 cm. The pots were then cultivated in a greenhouse (12-16 h of light, temperature day 20-22° C., night 15-18° C.) until the time of application. The pots were treated at the BBCH stage 00-10 of the seeds/plants on a laboratory track sprayer with spray liquors comprising the compositions according to the invention, mixtures or components used individually, as WG, WP, EC or other formulations. The application rate for the spray application was 100-600 l of water/ha. After the treatment, the plants were returned to the greenhouses and, when required, treated with fertilizer and watered. • 2. Post-emergence action against weeds: seeds of various broad-leaved weed and weed grass biotypes (origins) were sown in a 8-13 cm diameter pot filled with natural soil of a standard field soil (loamy silt; non-sterile) and covered with a covering soil layer of about 1 cm. The pots were then cultivated in a greenhouse (12-16 h of light, temperature day 20-22° C., night 15-18° C.) until the time of application. The pots were treated at various BBCH stages between 11-25 of the seeds/plants, i.e. generally between two to three weeks after the start of the cultivation, on a laboratory track sprayer with spray liquors comprising the compositions according to the invention, mixtures or components used individually, as WG, WP, EC or other formulations. The application rate for the spray application was 100-600 l of water/ha. After the treatment, the plants were returned to the greenhouses and, when required, treated with fertilizer and watered. • 3. Pre-emergence action against weeds with and without incorporation of active compound: seeds of various broad-leaved weed and weed grass biotypes (origins) were sown in a 8-13 cm diameter pot filled with natural soil of a standard field soil (loamy silt; non-sterile). […]

TRZAS = assay: as above; type: in vivo, Triticum aestivum, summer wheat; details: g of AS/ha: (A) 120, (B) 1200, (C) 140, (A)+(B)+(C) 120 + 1200 + 140
Method: as §1
(§4) About 3 weeks after the application, the soil action or/and foliar action was assessed visually according to a scale of 0-100% in comparison to an untreated comparative group: 0%=no noticeable effect compared to the untreated comparative group; 100%=full effect compared to the untreated comparative group. […]

APESV = assay: Greenhouse trial: PO application (test methods 2 and 5); type: in vivo, Apera Spica-venti; details: g of AS/ha: (A) 120, (B) 1600, (C) 140, (A)+(B)+(C) 120 + 1600 + 140
Method: as §1, §2
(§5) (notes: the term “seeds” also includes vegetative propagation forms such as, for example, rhizome pieces; abbreviations used: h light=hours of illumination, g of AS/ha=gram of active substance per hectare, I/ha=liter per hectare, S=sensitive, R=resistant) • 1. Pre-emergence action against weeds: seeds of various broad-leaved weed and weed grass biotypes (origins) were sown in a 8-13 cm diameter pot filled with natural soil of a standard field soil (loamy silt; non-sterile) and covered with a covering soil layer of about 1 cm. The pots were then cultivated in a greenhouse (12-16 h of light, temperature day 20-22° C., night 15-18° C.) until the time of application. […]

HORVS [1] = assay: as above; type: in vivo, Hordeum vulgare, summer barley; details: g of AS/ha: (A) 120, (B) 1600, (C) 140, (A)+(B)+(C) 120 + 1600 + 140
Method: as §1, §4

LOLPE [2] = assay: Greenhouse trial: PE application vs application 7 days prior to sowing (test method 6); type: in vivo, Lolium perenne
Method: as §1, §2, §3

AVEFA = assay: as above; type: in vivo, Avena fatua
Method: as §1, §2, §3

HORVS [3] = assay: as above; type: in vivo, Hordeum vulgare, summer barley; details: g of AS/ha: (A) 90, (B) 1200, (C) 140, mixture 90 + 1200 + 140
Method: as §1, §4

MATCH [4] = assay: Greenhouse trial: PE application with different irrigation variants (test method 7); type: in vivo, Matricaria chamomilla; details: g of AS/ha: (A) 120, (B) 1200, (C) 140, (A)+(B)+(C) 120 + 1200 + 140
Method: as §1, §2, §3

LOLPE [5] = assay: Greenhouse trial: different soil types (test method 8); type: in vivo, Lolium perenne; details: g of AS/ha: (A) 120, (B) 1200, (C) 90, (A)+(B)+(C) 120 + 1200 + 90
Method: as §1, §2, §3

MATCH [6] = assay: as above; type: in vivo, Matricaria chamomilla; details: g of AS/ha: (A) 120, (B) 1200, (C) 140, (A)+(B)+(C) 120 + 1200 + 140
Method: as §1, §2, §3

HORVS [7] = assay: as above; type: in vivo, Hordeum vulgare, summer barley; details: g AS/ha: (A) 120, (B) 1200, (C) 140, (A)+(B)+(C) 120 + 1200 + 140
Method: as §1, §2, §5

STEME = assay: Greenhouse trial: resistant biotypes following PE application (test method 9); type: in vivo, Stellaria media; details: PE, g of AS/ha: (A) 90, (B) 1200, (C) 140, (A)+(B)+(C) 90 + 1200 + 140, iodosulfuron 10
Method: as §1, §2, §3

LOLSS = assay: as above; type: in vivo, Lolium species; details: g of AS/ha: (A) 90, (B) 1200, (C) 140, (A)+(B)+(C) 90 + 1200 + 140, iodosulfuron 10
Method: as §1, §2, §3

MATCH [8] = assay: Greenhouse trial: different sowing depths on PE application (test method 10); type: in vivo, Matricaria chamomilla; details: g of AS/ha: (A) 90, (B) 1200, (C) 140, (A)+(B)+(C) 90 + 1200 + 140
Method: as §1, §2, §3

[9] = PE application, g of AS/ha: (A) 90, (B) 1200, (C) 140, mixture 90 + 1200 + 140
[10] = application 7 days prior to sowing, g of AS/ha: (A) 90, (B) 1200, (C) 140, (A)+(B)+(C) 90 + 1200 + 140

## CSc1nnc(C(C)(C)C)c(=O)n1N [(C) metribuzin, 4-amino-6-(1,1-dimethylethyl)-3-(methylthio)-1,2,4-triazon-5(4H)-one]
POAAN; Incorporation
  activity POAAN: 68%
POAAN; PE application
  activity POAAN: 0%
TRZAS; Incorporation
  activity TRZAS (crop plant): 100%
TRZAS; PE application
  activity TRZAS (crop plant): 65%
APESV
  activity APESV: 79%
HORVS [1]
  activity HORVS (crop plant): 70%
LOLPE [2]; [9]
  activity LOLPE: 70%
LOLPE [2]; [10]
  activity LOLPE: 0%
AVEFA; [9]
  activity AVEFA: 10%
AVEFA; [10]
  activity AVEFA: 0%
HORVS [3]
  activity HORVS (crop plant): 50%
MATCH [4]; Irrigation from above
  activity MATCH: 0%
MATCH [4]; Irrigation from below
  activity MATCH: 60%
LOLPE [5]; IU soil
  activity LOLPE IU soil: 75%
LOLPE [5]; IU/EC73 soil
  activity LOLPE IU/EC73 soil: 5%
MATCH [6]; IU soil
  activity MATCH IU soil: 0%
MATCH [6]; IU/EC73 soil vs IU soil
  Difference of the soil types Δ^D, MATCH: Δ^D + 5%
MATCH [6]; IU/EC73 soil
  activity MATCH IU/EC73 soil: 15%
HORVS [7]; IU soil
  activity HORVS IU soil (crop plant): 0%
HORVS [7]; IU/EC73 soil vs IU soil
  Difference of the soil types, HORVS: 0%
HORVS [7]; IU/EC73 soil
  activity HORVS IU/EC73 soil (crop plant): 0%
STEME; resistant biotype
  activity STEME resistant: 98%
STEME; sensitive biotype
  activity STEME sensitive: 100%
LOLSS; PE, resistant biotype
  activity LOLSS resistant: 70%
LOLSS; PE, sensitive biotype
  activity LOLSS sensitive: 70%
LOLSS
  Difference Δ^D activity resistant to activity sensitive, LOLSS: Δ^D ± 0%
MATCH [8]; sowing depth 5 mm
  activity MATCH 5 mm: 100%
MATCH [8]; sowing depth 20 mm
  activity MATCH 20 mm: 70%
